Assay results from patent US10723709B2, “Protease inhibitors” (MEDIVIR AB, priority 2008, dated 2020).

How the values were obtained:
[1] = In vivo mouse PK, oral administration (FIG. 1); parameters: species or system male C57Bl mice; settings: mice, orally administered 60 μmol/kg in 1% Methocel A4C vehicle; compared with Example 2 of WO2008 007107
From the text: FIG. 1 depicts plasma concentration against time for male C57Bl mice orally administered a compound of the invention or a compound of the prior art.
Various embodiments of the invention will now be described by way of illustration only with reference to the following Examples and FIG. 1 which depicts plasma concentration against time for male C57Bl mice orally administered a compound of the invention or a compound of the prior art.

[2] = reference markers of the permeability assay; cited from earlier work

Description for Caco-2 cells: This experiment measures transport of inhibitors through the cells of the human gastroenteric canal. The assay uses the well known Caco-2 cells with a passage number between 40 and 60.
Apical to Basolateral Transport
The basolateral and the apical wells will contain 1.5 mL and 0.4 mL transport buffer (TB), respectively, and the standard concentration of the tested substances is 10 μM. Furthermore all test solutions and buffers will contain 1% DMSO. Prior to the experiment the transport plates are pre-coated with culture medium containing 10% serum for 30 minutes to avoid nonspecific binding to plastic material. After 21 to 28 days in culture on filter supports the cells are ready for permeability experiments. […]
0.5 mL transport buffer (HBSS, 25 mM MES, pH 6.5) is added to the inserts and the cell monolayers equilibrated in the transport buffer system for 30 minutes at 37° C. in a polymix shaker. After being equilibrated to the buffer system the Transepithelial electrical resistance value (TEER) is measured in each well by an EVOM chop stick instrument. […]
300 μL will be taken from the basolateral (receiver) wells at each scheduled time point and the post value of TEER is measured at the end the experiment. […]
Determination of the cumulative fraction absorbed, FAcum, versus time. FAcum is calculated from: […]
The determination of permeability coefficients (Papp, cm/s) are calculated from: […]

Row | Compound | % absorption in man [2] [%] | further results
1 | C#C[C@@H]1CN(C(=O)[C@H](CC(C)C)NC(=O)c2ccc(-c3nc(N4CCN(C)CC4)sc3F)cc2)[C@@H]2C(=O)CO[C@H]12 [Example 2, N-[1-6-(ethynyl-3-oxo-hexahydro-furo[3,2-b]pyrrole-4-carbonyl)-3-methyl-butyl]-4-[5-fluoro-2-(4-methyl-piperazin-1-yl)thiazol-4-yl]-benzamide] | – | in vivo exposure (whether measured as Cmax or AUC) [1]: very much greater
2 | N[C@@H](Cc1ccccc1)C(=O)O [L-Phenylalanine] | 100 | –
3 | OC[C@@H](O)[C@@H](O)[C@H](O)[C@H](O)CO [Mannitol] | 16 | –
4 | CN(Cc1cnc2nc(N)nc(N)c2n1)c1ccc(C(=O)N[C@@H](CCC(=O)O)C(=O)O)cc1 [Methotrexate] | 20 | –
5 | N—((S)-1-((3aS, 6R, 6aS)-6-methoxy-oxodihydro-2H-furo[3,2-b]pyrrol-4(5H, 6H, 6aH)-yl)-4-methyl-oxopentan-2-yl)-4-(2-(4-methylpiperazine-1-yl)thiazol-4-yl)benzamide | – | papp value (Caco-2 cells): 9e-07 cm/s
